In BindingDB's records for patent US10961200 (Department Of Health And Human Services, 2021):

The molecules below were run against L-lactate dehydrogenase A chain (Homo sapiens, UniProt P00338) (assay: Biochemical Assay).
Excerpt: Test compounds were placed in a Greiner Bio-One (Monroe, N.C.) 1536-well black solid bottom assay plate. 200 millimolar (mM) Tris HCl, pH 7.4, 100 micromolar (M) EDTA and 0.01% TWEEN-20 , final concentration, was used as the assay buffer. The LDHA reagent was 2 nanomolar (nM) Human LDHA (Meridian Life Science, Inc., Memphis, Tenn.), final concentration, in assay buffer.

IC50, < 100 nM:
NS(=O)(=O)c1ccc(Cc2c(-c3cccc(Nc4ccccc4)c3)nn(-c3nc(C(=O)O)cs3)c2CC2CC2)cc1 [US10961200, Compound 485]
CC(C)Oc1cccc(-c2nn(-c3nc(C(=O)O)cs3)c(CC3CC3)c2Cc2ccc(S(N)(=O)=O)cc2)c1 [US10961200, Compound 504]
NS(=O)(=O)c1ccc(Cc2cn(-c3nc(C(=O)O)cs3)nc2-c2ccc(F)c(-c3ccccc3)c2)cc1 [US10961200, Compound 515]
